According to paper PMC11956013, “Structure–Activity Relationships and Evaluation of 2-(Heteroaryl-cycloalkyl)-1H-indoles as Tauopathy Positron Emission Tomography Radiotracers” (Journal of Medicinal Chemistry, 2025):

Legend:
tyrosine hydroxylase = target: T1, tyrosine hydroxylase (Rattus norvegicus, UniProt P04177); assay: Eurofins panel: tyrosine hydroxylase; type: biochemical; details: compound concentration 1.0E-05 M
T1 construct: purchased Eurofins (CNS SafetyScreen panel, contract assay)

AMPA = assay: Eurofins panel: AMPA (agonist radioligand); type: binding; details: 1.0E-05 M; AMPA (agonist radioligand)
ATPase (Na+/K+) = assay: Eurofins panel: ATPase (Na+/K+) enzymatic activity; type: biochemical; details: 1.0E-05 M
[1] = target: T2, GABAB(B1b/B2) Human GABA B GPCR (Homo sapiens, UniProt Q9UBS5); assay: GABAB(B1b/B2) Human GABA B GPCR Mass Spectrometry Binding (Antagonist Ligand) Assay, Cerep, assay 4699
T2 construct: Eurofins (Cerep) assay 4699

[2] = test system: Ca2+ channel (L, verapamil site) (phenylalkylamine); assay: Eurofins panel: Ca2+ channel (L, verapamil site) (phenylalkylamine) (antagonist radioligand); type: binding; details: 1.0E-05 M
M1 (h) = target: T3, M1 (h) (Homo sapiens, UniProt P11229); assay: biochemical; type: binding
T3 construct: purchased Eurofins (CNS SafetyScreen panel, contract assay) assay 91

cathepsin L (h) = target: T4, cathepsin L (h) (Homo sapiens, UniProt P07711); assay: Eurofins panel: cathepsin L (h) enzymatic activity; type: biochemical; details: 1.0E-05 M; cathepsin L (h)
T4 construct: Eurofins (panel run by the vendor)

[3] = target: T5, human monoamine oxidase-B (MAO-B) (Homo sapiens, UniProt P27338)
A1 (h) = A1 (h) (Homo sapiens, UniProt P30542); details: 1.0E-05 M; A1 (h) (antagonist radioligand)
acetylcholinesterase (h) = acetylcholinesterase (h) (Homo sapiens, UniProt P22303)
alpha2C (h) = alpha2C (h) (Homo sapiens, UniProt P18825); details: 1.0E-05 M; alpha2C (h) (antagonist radioligand)
Y2 (h) = Y2 (h) (Homo sapiens, UniProt P49146); details: compound concentration 1.0E-05 M
[4] = target: T5, human monoamine oxidase-B (MAO-B); assay: biochemical
CYP2D6 = CYP2D6 (Homo sapiens, UniProt P10635); assay: in vitro; details: human liver microsomes, probe dextromethorphan
CB1 (h) = CB1 (h) (Homo sapiens, UniProt P21554); assay: biochemical
CCK2 (CCKB) (h) = CCK2 (CCKB) (h) (Homo sapiens, UniProt P32239); assay: biochemical
CGRP (h) = CGRP (h) (Homo sapiens, UniProt O60894+Q16602); assay: biochemical
D1 (h) = D1 (h) (Homo sapiens, UniProt P21728); assay: biochemical
D2L (h) = D2L (h) (Homo sapiens, UniProt P14416); assay: biochemical
D4.4 (h) = D4.4 (h) (Homo sapiens, UniProt P21917); assay: biochemical
H1 (h) = H1 (h) (Homo sapiens, UniProt P35367); assay: biochemical
H3 (h) = H3 (h) (Homo sapiens, UniProt Q9Y5N1); assay: biochemical
M3 (h) = M3 (h) (Homo sapiens, UniProt P20309); assay: biochemical
mGluR5 (h) = mGluR5 (h) (Homo sapiens, UniProt P41594); assay: Eurofins panel: mGluR5 (h) (agonist radioligand); details: 1.0E-05 M; mGluR5 (h) (agonist radioligand)
A2B (h) = A2B (h) (Homo sapiens, UniProt P29275); assay: Eurofins panel: A2B (h) (antagonist radioligand); details: 1.0E-05 M
D3 (h) = D3 (h) (Homo sapiens, UniProt P35462); assay: D3 (h) (antagonist radioligand), Eurofins assay 48
alpha1A (h) = target: T6, alpha1A (h) (Homo sapiens, UniProt P35348); assay: Eurofins panel: alpha1A (h) (antagonist radioligand); details: 1.0E-05 M; alpha1A (h) (antagonist radioligand)
T6 sequence (P35348 1-466): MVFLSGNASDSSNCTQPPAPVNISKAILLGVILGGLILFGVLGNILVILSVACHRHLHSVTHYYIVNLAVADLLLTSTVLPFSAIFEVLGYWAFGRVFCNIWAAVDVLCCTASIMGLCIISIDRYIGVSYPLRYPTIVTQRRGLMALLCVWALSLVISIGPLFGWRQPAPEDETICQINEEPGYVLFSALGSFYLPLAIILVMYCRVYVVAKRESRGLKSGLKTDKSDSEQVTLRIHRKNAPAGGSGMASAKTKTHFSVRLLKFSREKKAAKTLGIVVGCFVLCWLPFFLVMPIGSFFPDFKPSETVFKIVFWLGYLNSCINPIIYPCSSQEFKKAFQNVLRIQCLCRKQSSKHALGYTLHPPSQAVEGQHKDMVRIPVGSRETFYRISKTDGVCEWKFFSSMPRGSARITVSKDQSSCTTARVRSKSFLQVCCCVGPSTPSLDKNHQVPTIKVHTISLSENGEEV

MT1 (ML1A) (h) = MT1 (ML1A) (h) (Homo sapiens, UniProt P48039); assay: MT1 (ML1A) (h) (agonist radioligand), Eurofins assay 1538
N neuronal alpha7 (h) = N neuronal alpha7 (h) (Homo sapiens, UniProt P36544); assay: Eurofins panel: N neuronal alpha7 (h) (antagonist radioligand); details: compound concentration 1.0E-05 M
[5] = target: MAO-A, human, monoamine oxydase A (Homo sapiens, UniProt P21397); assay: MAO-A, human, monoamine oxydase A, MAO, Enzymatic Assay, Cerep, assay 5108

T5 sequence (P27338 whole entry): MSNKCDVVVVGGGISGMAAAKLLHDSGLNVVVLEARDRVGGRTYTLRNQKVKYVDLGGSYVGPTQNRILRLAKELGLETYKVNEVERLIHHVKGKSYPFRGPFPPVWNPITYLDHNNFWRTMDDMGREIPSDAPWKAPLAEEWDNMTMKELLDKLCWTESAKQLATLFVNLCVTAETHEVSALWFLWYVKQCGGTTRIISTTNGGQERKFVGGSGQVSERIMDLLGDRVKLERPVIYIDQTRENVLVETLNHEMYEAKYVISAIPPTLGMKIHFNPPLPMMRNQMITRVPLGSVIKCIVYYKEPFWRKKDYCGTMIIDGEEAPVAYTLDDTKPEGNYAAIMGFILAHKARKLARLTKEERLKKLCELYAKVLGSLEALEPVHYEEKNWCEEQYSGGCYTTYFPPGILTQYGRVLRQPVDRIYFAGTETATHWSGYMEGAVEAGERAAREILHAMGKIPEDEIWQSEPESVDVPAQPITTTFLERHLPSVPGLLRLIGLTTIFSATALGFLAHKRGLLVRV
M3 (h), sequence (P20309 whole entry): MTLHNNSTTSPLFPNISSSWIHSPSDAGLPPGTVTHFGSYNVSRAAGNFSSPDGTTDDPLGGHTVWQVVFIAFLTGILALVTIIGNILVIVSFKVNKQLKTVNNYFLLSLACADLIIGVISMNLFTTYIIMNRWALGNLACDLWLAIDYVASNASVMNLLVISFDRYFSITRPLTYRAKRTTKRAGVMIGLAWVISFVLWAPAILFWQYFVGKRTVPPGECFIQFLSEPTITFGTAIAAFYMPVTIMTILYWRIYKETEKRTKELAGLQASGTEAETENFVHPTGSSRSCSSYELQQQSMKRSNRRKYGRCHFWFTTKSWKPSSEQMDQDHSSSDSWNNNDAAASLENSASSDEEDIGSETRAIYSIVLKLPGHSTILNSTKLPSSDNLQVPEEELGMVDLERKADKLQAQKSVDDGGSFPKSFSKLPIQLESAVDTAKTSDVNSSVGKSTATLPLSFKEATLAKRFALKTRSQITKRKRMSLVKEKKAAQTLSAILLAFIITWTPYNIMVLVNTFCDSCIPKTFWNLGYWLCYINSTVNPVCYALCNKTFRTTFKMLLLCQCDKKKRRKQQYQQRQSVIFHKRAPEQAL
T3 sequence (P11229 whole entry): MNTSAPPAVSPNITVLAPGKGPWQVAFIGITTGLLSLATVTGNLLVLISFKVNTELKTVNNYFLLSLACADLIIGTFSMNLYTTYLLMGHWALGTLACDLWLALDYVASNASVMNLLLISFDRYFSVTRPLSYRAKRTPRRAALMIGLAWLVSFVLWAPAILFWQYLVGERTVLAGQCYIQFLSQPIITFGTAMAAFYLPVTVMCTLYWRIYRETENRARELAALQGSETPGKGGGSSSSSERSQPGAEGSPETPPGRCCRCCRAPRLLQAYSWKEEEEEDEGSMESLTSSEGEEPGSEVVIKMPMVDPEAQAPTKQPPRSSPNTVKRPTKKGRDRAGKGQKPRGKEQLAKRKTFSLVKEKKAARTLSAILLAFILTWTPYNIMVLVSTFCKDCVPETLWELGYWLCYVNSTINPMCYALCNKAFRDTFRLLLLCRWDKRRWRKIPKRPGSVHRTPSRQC
mGluR5 (h), sequence (P41594 21-1212): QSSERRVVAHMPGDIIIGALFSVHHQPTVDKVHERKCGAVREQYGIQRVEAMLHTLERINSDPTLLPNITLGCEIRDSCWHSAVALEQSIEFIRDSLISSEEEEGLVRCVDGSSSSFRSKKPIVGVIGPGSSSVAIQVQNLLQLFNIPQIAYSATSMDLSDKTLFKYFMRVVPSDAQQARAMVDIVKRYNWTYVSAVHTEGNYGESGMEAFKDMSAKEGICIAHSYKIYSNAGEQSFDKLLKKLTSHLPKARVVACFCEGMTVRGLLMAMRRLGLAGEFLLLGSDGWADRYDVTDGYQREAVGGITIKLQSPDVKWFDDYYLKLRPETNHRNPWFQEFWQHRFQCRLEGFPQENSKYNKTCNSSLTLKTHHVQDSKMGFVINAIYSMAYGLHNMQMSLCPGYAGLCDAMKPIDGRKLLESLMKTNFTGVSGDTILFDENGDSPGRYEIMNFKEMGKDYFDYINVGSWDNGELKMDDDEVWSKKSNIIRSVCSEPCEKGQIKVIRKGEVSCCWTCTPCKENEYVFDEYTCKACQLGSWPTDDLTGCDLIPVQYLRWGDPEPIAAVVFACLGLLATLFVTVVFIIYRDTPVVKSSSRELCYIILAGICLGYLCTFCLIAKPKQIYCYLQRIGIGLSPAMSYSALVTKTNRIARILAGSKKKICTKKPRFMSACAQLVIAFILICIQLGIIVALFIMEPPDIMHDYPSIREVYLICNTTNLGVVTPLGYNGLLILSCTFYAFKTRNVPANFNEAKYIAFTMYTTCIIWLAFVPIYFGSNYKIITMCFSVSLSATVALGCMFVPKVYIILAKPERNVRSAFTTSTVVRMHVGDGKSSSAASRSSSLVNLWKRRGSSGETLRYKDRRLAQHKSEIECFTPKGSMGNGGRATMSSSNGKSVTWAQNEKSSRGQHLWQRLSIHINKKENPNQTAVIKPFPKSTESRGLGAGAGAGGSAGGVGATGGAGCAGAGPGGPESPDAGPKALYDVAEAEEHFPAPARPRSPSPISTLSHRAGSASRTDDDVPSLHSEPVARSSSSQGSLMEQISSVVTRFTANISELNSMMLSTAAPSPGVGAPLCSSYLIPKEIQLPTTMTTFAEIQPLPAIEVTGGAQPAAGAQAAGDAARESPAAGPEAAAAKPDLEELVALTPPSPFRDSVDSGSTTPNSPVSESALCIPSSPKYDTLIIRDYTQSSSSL
H3 (h), sequence (Q9Y5N1 whole entry): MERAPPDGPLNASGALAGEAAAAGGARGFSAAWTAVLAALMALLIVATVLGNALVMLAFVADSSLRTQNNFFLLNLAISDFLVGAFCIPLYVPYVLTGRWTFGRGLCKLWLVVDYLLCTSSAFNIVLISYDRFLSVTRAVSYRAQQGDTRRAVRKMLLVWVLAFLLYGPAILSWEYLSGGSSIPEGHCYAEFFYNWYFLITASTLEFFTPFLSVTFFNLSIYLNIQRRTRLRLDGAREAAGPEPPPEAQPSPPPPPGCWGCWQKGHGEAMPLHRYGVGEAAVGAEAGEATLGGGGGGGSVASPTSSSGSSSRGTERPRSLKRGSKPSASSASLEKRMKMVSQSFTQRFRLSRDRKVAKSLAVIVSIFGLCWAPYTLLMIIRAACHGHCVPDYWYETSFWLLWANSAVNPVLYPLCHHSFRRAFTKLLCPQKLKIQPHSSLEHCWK
N neuronal alpha7 (h), sequence (P36544 23-502): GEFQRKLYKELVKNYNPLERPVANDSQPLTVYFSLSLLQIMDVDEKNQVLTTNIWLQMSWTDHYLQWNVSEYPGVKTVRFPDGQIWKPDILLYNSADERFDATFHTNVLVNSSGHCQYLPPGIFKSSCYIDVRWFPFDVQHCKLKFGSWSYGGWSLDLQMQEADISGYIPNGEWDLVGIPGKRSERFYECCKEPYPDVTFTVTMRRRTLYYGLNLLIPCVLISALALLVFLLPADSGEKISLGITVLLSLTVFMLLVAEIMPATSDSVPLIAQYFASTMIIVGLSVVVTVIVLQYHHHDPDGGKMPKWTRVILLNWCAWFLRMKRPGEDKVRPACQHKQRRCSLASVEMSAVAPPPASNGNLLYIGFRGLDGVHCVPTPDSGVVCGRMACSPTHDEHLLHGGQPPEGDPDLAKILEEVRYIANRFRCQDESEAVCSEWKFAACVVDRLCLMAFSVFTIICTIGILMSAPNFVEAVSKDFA
acetylcholinesterase (h), sequence (P22303 32-614): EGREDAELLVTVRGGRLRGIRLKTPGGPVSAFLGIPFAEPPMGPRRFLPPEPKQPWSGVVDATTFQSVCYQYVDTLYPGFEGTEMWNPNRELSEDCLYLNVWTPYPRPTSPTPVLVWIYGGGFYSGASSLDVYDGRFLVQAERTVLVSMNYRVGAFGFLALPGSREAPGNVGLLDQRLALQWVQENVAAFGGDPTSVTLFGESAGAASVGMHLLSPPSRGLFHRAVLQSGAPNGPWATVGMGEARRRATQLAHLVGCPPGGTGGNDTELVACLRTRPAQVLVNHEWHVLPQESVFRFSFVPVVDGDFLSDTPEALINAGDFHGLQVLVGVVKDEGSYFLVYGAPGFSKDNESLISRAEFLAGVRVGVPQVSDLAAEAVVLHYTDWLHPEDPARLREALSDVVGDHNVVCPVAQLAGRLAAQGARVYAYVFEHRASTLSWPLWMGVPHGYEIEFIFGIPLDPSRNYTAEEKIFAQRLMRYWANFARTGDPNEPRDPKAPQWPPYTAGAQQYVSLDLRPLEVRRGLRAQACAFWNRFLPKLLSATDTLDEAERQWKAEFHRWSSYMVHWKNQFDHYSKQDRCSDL
D2L (h), sequence (P14416 whole entry): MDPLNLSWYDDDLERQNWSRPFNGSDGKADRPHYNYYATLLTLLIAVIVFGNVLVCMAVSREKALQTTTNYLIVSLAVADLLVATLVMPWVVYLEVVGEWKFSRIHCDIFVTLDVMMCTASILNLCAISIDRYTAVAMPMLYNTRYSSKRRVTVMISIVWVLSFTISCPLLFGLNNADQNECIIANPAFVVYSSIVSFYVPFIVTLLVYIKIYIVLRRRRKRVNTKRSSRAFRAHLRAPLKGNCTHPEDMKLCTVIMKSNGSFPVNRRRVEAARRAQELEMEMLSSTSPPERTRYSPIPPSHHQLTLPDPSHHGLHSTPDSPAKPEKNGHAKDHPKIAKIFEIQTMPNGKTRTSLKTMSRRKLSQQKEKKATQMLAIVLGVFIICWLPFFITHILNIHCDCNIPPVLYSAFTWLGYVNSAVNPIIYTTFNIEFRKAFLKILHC
T4 sequence (P07711 114-333): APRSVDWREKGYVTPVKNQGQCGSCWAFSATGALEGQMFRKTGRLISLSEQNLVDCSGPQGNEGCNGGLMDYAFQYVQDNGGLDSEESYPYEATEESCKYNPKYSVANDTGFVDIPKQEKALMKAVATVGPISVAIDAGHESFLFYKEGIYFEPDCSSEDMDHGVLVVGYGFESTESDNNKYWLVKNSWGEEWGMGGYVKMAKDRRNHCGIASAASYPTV

Fc1nc(N2CCOCC2)ccc1-c1cc2ccccc2[nH]1 [Compound 75, 4-(6-Fluoro-5-(1H-indol-2-yl)pyridin-2-yl)morpholine]
% Inhibition, Enzymatic activity (tyrosine hydroxylase): -8.91E+00% | % Inhibition, Specific binding (AMPA): 4.317% | % Inhibition, Enzymatic activity (ATPase (Na+/K+)): -2.26E+00% | inhibition at 10 µM [1]: 18.1% | % Inhibition, Specific binding [2]: -2.08E+01% | inhibition at 10 µM (M1 (h)): -8.86% | % Inhibition, Enzymatic activity (cathepsin L (h)): 15.4729% | inhibition at human MAO-B (vs deprenyl) [3]: 61% | % Inhibition, Specific binding (A1 (h)): -7.64E+00% | % Inhibition, Enzymatic activity (acetylcholinesterase (h)): 1.77% | % Inhibition, Specific binding (alpha2C (h)): 4.876% | % Inhibition, Specific binding (Y2 (h)): 3.943% | inhibition at 10 µM [4]: 61% | inhibition at 10 µM (CYP2D6): 13.6% | inhibition at 10 µM (CB1 (h)): -0.0362% | inhibition at 10 µM (CCK2 (CCKB) (h)): 2.96% | inhibition at 10 µM (CGRP (h)): -5.83% | inhibition at 10 µM (D1 (h)): -11.8% | inhibition at 10 µM (D2L (h)): -1.3% | inhibition at 10 µM (D4.4 (h)): 20.4% | inhibition at 10 µM (H1 (h)): -3.1% | inhibition at 10 µM (H3 (h)): -4.9% | inhibition at 10 µM (M3 (h)): -12.5% | % Inhibition, Specific binding (mGluR5 (h)): -1.20E+01% | % Inhibition, Specific binding (A2B (h)): -1.19E+01% | inhibition at 10 µM (D3 (h)): -5.9% | % Inhibition, Specific binding (alpha1A (h)): 3.065% | inhibition at 10 µM (MT1 (ML1A) (h)): 13% | % Inhibition, Specific binding (N neuronal alpha7 (h)): -7.00E+00% | inhibition at 10 µM [5]: 3.62%
